Data published in patent publication US20210284944A1, “HIGH-THROUGHPUT MULTI-ORGAN PERFUSION MODELS” (Novartis AG, priority 2018, published 2021).

Tests used:
[1] = test system: HCT116 colorectal cancer cells; assay: Hepatocyte-cancer cell crosstalk: prodrug added to hepatocyte well, cell death in connected HCT116 well (live/dead staining); type: cell-based; settings: increasing concentrations of Tegafur (0, 100, 200, 300 and 400 uM) added to hepatocyte chamber; fluidic flow 72 hours
Protocol: 20,000 primary human hepatocytes (Lonza) (Hepatocyte plating medium for 4 hours, followed by hepatocyte maintenance medium with 0.3% (v/v) matrigel GFR for 20 hours) or HepG2 cells (to be transfected with CYP2A6 cDNA (as per vendor's recommendation)) were plated in one well of the two connected wells in their respective cell culture medium (catalog number 3386 for Transwell® plate). Prior to plating the primary human hepatocytes from Lonza, the Transwell® plate was coated with 0.1 mg/ml collagen (50 μls) ([…] Sigma-collagen I rat tail solution) (solubilized in 0.1% acetic acid in 1×PBS (v/v)) for 1 hour at 37° C. (cell culture incubator) and washed with 1×PBS. The primary human hepatocytes were sandwiched in the human hepatocyte maintenance medium with 0.3% matrigel GFR (v/v) for the next 20 hours. In the other connected well of each test unit, 20,000 HCT116 cells were plated directly on the Transwell® membrane in McCoy's 5A media. For HepG2 cells, the cells were transfected with CYP2A6 cDNA for 48 hours prior to any drug addition. On the day of drug addition, the HCT116 colorectal cancer cells were moved into hepatocyte media in order to prevent mixing of different mediums. The high-throughput microfluidic device illustrated in FIG. 5B was cleaned, assembled and sterilized via autoclaving for 60 minutes. […]

[2] = test system: primary human hepatocytes; assay: Hepatocyte-cancer cell crosstalk: viability of the hepatocytes after drug treatment; type: cell-based; settings: Tegafur added to hepatocyte chamber; 72 hours
Protocol: 20,000 primary human hepatocytes (Lonza) (Hepatocyte plating medium for 4 hours, followed by hepatocyte maintenance medium with 0.3% (v/v) matrigel GFR for 20 hours) or HepG2 cells (to be transfected with CYP2A6 cDNA (as per vendor's recommendation)) were plated in one well of the two connected wells in their respective cell culture medium (catalog number 3386 for Transwell® plate). Prior to plating the primary human hepatocytes from Lonza, the Transwell® plate was coated with 0.1 mg/ml collagen (50 μls) (C3867 Sigma—collagen I rat tail solution) (solubilized in 0.1% acetic acid in 1×PBS (v/v)) for 1 hour at 37° C. (cell culture incubator) and washed with 1×PBS. The primary human hepatocytes were sandwiched in the human hepatocyte maintenance medium with 0.3% matrigel GFR (v/v) for the next 20 hours.
The high-throughput microfluidic device illustrated in FIG. 5B was cleaned, assembled and sterilized via autoclaving for 60 minutes. The wells of the autoclave-sterilized high-throughput microfluidic device (with two wells connected for each test unit) were filled with 300 μLs of media and centrifuged at 40 r.c.f for 4 minutes to fill all the flow channels. […] FIG. 12A depicts how the wells are filled, and FIG. 12B illustrates a test unit of the system. […]

[3] = test system: HCT116 colon cancer cells; assay: Staurosporine acute toxicity on HCT116 cells in connected wells of the microfluidic device (live/dead staining); type: cell-based; settings: for cell death (live/dead staining): 24 hours
Protocol: 20,000 HCT116 cells were plated directly on the Transwell® membrane (catalog number 3386 for Transwell® plate) in McCoy's 5A media such that the connected wells preceding them were either filled with McCoy's 5A media (50 μls) alone or filled with 25 μls of 2.5 mg/ml collagen gel, with McCoy's 5A media (50 μls) above it. The arrangement is depicted in FIG. 11A, showing three pairs of connected wells (test units), where the lower well in each connected pair (test unit) has medium only, while the upper well in each test unit has HCT116 cells inside the well.
The high-throughput microfluidic device of FIG. 5B was cleaned, assembled and sterilized via autoclaving for 60 minutes. The wells of the autoclave sterilized high-throughput microfluidic device (two-well connects) were filled with 300 μLs of media and centrifuged at 40 r.c.f for 4 minutes to fill all the channels.
After 24 hours of culture, 50 μls of fresh media with different concentrations of staurosporine were added to different wells (see FIG. 11A). The device was placed on a compressed air system and the fluid was pumped via membrane flexion under a compressed air cycle of 1.5 psi (amplitude), sinusoidal wave pattern with a frequency of 0.2. The cells were imaged with live/dead staining after 24 hours to understand the diffusion characteristics of the drug and resulting cell death induced by staurosporine. […] Note that each image of the cells in a single well is divided into quadrants.

[4] = test system: heart, liver and lung microfluidic modules; settings: Skardal et al., Scientific Reports 7(1), 8837 (2017); cited from earlier work

## O=c1[nH]c(=O)n(C2CCCO2)cc1F (centres unmarked) [Tegafur]
[1]
  toxicity to HCT116 eGFP cells in the connected wells: significant dose dependent toxicity
[2]
  propidium iodide stain in the hepatocytes: slight dose dependent increase
  viability of hepatocytes after drug treatment: high viability

## CN[C@@H]1C[C@H]2O[C@@](C)([C@@H]1OC)n1c3ccccc3c3c4c(c5c6ccccc6n2c5c31)C(=O)NC4 [staurosporine]
[3]; test units with collagen gel plug as diffusion barrier, higher concentration of staurosporine
  cell death (live/dead staining): only a minor increase in cell death
[3]; test units without collagen gel, 0 μM, 25 μM and 50 μM staurosporine in connected well, 24 hours of operation
  cell death in the HCT116 cells: dose-dependent cell death
[3]; without collagen gel, second image, 25 uM staurosporine
  cell death (live/dead staining): significant cell death
[3]; without collagen gel, third image, 50 uM staurosporine
  cell death (live/dead staining): much more cell death

## bleomycin
[4]
  toxicity in multi-organ system: induce lung inflammatory factor-driven cardiotoxicity
